{"source": "ChEMBL document CHEMBL4342445", "about": "“Structurally Diverse Meroterpenoids from a Marine-Derived Aspergillus sp. Fungus” (J Nat Prod, 2020)", "note": "Active and inactive are the calls of the source. The rule behind the calls is not given here.", "data": [{"target": "Acetylcholinesterase (Homo sapiens) (UniProt P22303)", "sequence (P22303 whole entry)": "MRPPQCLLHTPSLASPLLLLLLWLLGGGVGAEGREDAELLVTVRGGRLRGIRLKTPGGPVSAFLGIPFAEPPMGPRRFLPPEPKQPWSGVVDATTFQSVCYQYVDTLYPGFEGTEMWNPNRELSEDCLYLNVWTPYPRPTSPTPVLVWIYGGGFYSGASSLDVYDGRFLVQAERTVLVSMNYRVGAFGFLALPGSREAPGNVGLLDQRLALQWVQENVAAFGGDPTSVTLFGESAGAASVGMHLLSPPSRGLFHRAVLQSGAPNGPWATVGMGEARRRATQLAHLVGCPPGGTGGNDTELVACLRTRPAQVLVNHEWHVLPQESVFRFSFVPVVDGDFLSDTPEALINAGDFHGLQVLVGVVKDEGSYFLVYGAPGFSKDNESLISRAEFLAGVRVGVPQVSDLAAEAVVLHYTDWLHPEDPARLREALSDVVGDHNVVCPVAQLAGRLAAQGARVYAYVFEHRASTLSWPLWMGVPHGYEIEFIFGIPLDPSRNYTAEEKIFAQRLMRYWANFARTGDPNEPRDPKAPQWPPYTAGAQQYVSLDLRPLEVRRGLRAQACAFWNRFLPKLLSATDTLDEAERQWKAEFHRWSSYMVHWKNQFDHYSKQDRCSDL", "experiment": "Inhibition of human erythrocytes AChE at 50 uM using acetylthiocholine iodide as substrate preincubated for 20 mins followed by substrate addition and measured every 30 secs for 1 hr by spectrophotometry based Ellman's method", "values": [{"smiles": "C=C1[C@@]2(C(=O)OC)C(=O)[C@H](O)[C@]1(C)CC1=C(C)[C@]3(C=CC(=O)OC3(C)C)CC[C@@]12C", "inhibition": "inactive"}, {"smiles": "C=C1[C@@]2(C)C[C@H]3[C@]4(C)C=CC(=O)OC(C)(C)[C@H]4CC[C@]3(C)[C@]1(C(=O)OC)C(=O)[C@@](C)(O)C2=O", "inhibition": "inactive"}, {"smiles": "C=C1[C@@]23C(=O)O[C@H](C)[C@]24O[C@@]2(C(=C)[C@]5(C=CC(=O)OC5(C)C)CC[C@]32C)[C@H](OC(C)=O)[C@@]1(C)OC4=O", "inhibition": "inactive"}, {"smiles": "C=C1[C@@]2(C)CC3=C(C)[C@]4(C=CC(=O)OC4(C)C)CC[C@]3(C)[C@@]13C(=O)O[C@H](C)[C@@]3(O)C2=O", "inhibition": "inactive"}, {"smiles": "C=C1[C@]2(C)C(=O)[C@]3(O)[C@H](C)OC(=O)[C@]13[C@@]1(C)CC[C@@]3(C=CC(=O)OC3(C)C)C(C)=C1[C@@H]2OC(C)=O", "inhibition": "inactive"}, {"smiles": "C=C1[C@@]23C(=O)O[C@H](C)[C@]24O[C@@]2(C(=C)[C@]5(CCC(=O)OC5(C)C)C[C@@H](OC(=O)/C(C)=C/C)[C@]32C)[C@H](OC(C)=O)[C@@]1(C)OC4=O", "inhibition": "inactive"}, {"smiles": "C=C1[C@@]23C(=O)O[C@H](C)[C@@]2(O)C(=O)O[C@]1(C)[C@@H](OC(C)=O)C1=C(C)[C@]2(C=CC(=O)OC2(C)C)CC[C@@]13C", "inhibition": "inactive"}, {"smiles": "C=C1[C@@]2(C)CC3=C(C)[C@]4(C=CC(=O)OC4(C)C)CC[C@]3(C)[C@@]13C(=O)O[C@@H](C)[C@@]3(O)C2=O", "inhibition": "inactive"}, {"smiles": "C=C1[C@@]2(C)C[C@]3(C)[C@](C)(CC[C@@H]4C(C)(C)OC(=O)C=C[C@]43C)[C@@]13C(=O)O[C@H](C)[C@@]3(O)C2=O", "inhibition": "inactive"}]}]}
